This is an account of results in patent US11981658B2, “Substituted aminopyridine compounds as EGFR inhibitors” (YUHAN CORPORATION, priority 2021, dated 2024).

Read-outs that look alike come from different tables or passages of the source.

One assay has as its target EGFR Del19/T790M/C797S (Homo sapiens, UniProt P00533, C797S/DEL746-750/T790M). Put plainly: Biochemical EGFR kinase inhibition assay (Lance Ultra TR-FRET), triple mutant del19/T790M/C797S. Summed up: (§1)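 Step 1: compound in kinase buffer, 0.003–10 μM. Step 2: kinase reaction 1 h at room temperature. Step 4: TR-FRET read at 615/665 nm; IC50 calculated.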
Another assay deals with EGFR L858R/C797S (Homo sapiens, UniProt P00533, C797S/L858R). Put plainly: Biochemical EGFR kinase inhibition assay (Lance Ultra TR-FRET), double mutant L858R/C797S. Summed up:
as §1
A general note: Time-resolved FRET reads energy transfer from a long-lived donor to a nearby acceptor.

Another assay has as its target EGFR wildtype (WT) (Homo sapiens, UniProt P00533). Put plainly: Biochemical EGFR kinase inhibition assay (Lance Ultra TR-FRET), wildtype. In outline: as §1
The target of a further assay is EGFR L858R/T790M/C797S (Homo sapiens, UniProt P00533, C797S/L858R/T790M). Description: Biochemical EGFR kinase inhibition assay (Lance Ultra TR-FRET), triple mutant L858R/T790M/C797S. Summed up: as §1
In the next assay the target is EGFR Del19/C797S (Homo sapiens, UniProt P00533, C797S/DEL746-750). Put plainly: Biochemical EGFR kinase inhibition assay (Lance Ultra TR-FRET), double mutant del19/C797S. In outline: as §1
[1] abbreviates: ATP at Km, read-out: IC50 Del19/T790M/C797S (nM), Km ATP.
Where [2] appears, read: IC50 Del19/T790M/C797S (nM), 100 μM ATP.
Where [3] appears, read: ATP at Km, read-out: IC50 L858R/C797S (nM), Km ATP.
Setting [4] is: IC50 L858R/C797S (nM), 100 μM ATP.
[5] abbreviates: ATP at Km, read-out: IC50 WT (nM), Km ATP.
[6] abbreviates: ATP at Km, read-out: IC50 L858R/T790M/C797S (nM), Km ATP.
Where [7] appears, read: IC50 L858R/T790M/C797S (nM), 100 μM ATP.
Where [8] appears, read: ATP at Km, read-out: IC50 Del19/C797S (nM), Km ATP.
The mark [9] stands for this setting: IC50 Del19/C797S (nM), 100 μM ATP.
The mark [10] stands for this setting: Km ATP, read-out: IC50 Del19/T790M/C797S (nM) Km ATP.
Where [11] appears, read: Km ATP, read-out: IC50 L858R/C797S (nM) Km ATP.
Setting [12] is: Km ATP, read-out: IC50 WT (nM) Km ATP.
The mark [13] stands for this setting: Km ATP, read-out: IC50 L858R/T790M/C797S (nM) Km ATP.
Where [14] appears, read: Km ATP, read-out: IC50 Del19/C797S (nM) Km ATP.
Where [15] appears, read: Km ATP, read-out: IC50 Del19/T790M/C797S (nM), Km ATP.
Where [16] appears, read: Km ATP, read-out: IC50 L858R/C797S (nM), Km ATP.
Where [17] appears, read: Km ATP, read-out: IC50 WT (nM), Km ATP.
The mark [18] stands for this setting: Km ATP, read-out: IC50 L858R/T790M/C797S (nM), Km ATP.
[19] abbreviates: Km ATP, read-out: IC50 Del19/C797S (nM), Km ATP.

EGFR wildtype (WT), sequence (P00533 25-1210): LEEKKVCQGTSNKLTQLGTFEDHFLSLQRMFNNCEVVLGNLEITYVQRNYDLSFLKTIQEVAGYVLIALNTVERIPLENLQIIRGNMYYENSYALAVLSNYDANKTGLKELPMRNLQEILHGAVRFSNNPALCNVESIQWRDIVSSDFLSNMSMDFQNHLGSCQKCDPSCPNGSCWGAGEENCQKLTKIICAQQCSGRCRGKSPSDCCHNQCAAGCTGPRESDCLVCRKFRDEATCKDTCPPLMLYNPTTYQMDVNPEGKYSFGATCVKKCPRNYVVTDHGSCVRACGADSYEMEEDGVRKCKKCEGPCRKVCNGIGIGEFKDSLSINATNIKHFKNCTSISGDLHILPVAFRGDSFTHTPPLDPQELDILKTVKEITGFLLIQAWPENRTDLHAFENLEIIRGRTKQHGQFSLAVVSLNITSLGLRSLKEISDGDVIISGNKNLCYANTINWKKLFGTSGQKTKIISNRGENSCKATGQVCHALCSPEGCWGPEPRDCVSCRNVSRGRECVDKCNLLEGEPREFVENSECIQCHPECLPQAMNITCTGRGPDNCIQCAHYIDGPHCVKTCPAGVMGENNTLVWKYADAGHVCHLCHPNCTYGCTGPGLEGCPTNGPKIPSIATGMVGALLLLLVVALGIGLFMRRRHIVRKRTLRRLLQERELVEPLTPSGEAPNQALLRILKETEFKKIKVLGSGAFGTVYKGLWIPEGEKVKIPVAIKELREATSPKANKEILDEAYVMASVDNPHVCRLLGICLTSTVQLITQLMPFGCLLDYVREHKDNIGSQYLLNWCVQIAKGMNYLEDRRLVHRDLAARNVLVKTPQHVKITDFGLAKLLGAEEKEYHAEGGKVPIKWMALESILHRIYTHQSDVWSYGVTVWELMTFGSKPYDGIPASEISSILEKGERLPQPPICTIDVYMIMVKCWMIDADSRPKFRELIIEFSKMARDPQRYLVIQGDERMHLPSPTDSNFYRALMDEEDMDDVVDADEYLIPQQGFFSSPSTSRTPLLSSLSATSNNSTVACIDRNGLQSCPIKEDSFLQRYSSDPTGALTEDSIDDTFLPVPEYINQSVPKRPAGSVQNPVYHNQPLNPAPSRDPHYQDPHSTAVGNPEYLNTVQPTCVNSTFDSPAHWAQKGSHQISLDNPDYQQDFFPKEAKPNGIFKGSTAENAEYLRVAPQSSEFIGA
EGFR L858R/T790M/C797S, sequence (P00533 25-1210 T790M/C797S/L858R): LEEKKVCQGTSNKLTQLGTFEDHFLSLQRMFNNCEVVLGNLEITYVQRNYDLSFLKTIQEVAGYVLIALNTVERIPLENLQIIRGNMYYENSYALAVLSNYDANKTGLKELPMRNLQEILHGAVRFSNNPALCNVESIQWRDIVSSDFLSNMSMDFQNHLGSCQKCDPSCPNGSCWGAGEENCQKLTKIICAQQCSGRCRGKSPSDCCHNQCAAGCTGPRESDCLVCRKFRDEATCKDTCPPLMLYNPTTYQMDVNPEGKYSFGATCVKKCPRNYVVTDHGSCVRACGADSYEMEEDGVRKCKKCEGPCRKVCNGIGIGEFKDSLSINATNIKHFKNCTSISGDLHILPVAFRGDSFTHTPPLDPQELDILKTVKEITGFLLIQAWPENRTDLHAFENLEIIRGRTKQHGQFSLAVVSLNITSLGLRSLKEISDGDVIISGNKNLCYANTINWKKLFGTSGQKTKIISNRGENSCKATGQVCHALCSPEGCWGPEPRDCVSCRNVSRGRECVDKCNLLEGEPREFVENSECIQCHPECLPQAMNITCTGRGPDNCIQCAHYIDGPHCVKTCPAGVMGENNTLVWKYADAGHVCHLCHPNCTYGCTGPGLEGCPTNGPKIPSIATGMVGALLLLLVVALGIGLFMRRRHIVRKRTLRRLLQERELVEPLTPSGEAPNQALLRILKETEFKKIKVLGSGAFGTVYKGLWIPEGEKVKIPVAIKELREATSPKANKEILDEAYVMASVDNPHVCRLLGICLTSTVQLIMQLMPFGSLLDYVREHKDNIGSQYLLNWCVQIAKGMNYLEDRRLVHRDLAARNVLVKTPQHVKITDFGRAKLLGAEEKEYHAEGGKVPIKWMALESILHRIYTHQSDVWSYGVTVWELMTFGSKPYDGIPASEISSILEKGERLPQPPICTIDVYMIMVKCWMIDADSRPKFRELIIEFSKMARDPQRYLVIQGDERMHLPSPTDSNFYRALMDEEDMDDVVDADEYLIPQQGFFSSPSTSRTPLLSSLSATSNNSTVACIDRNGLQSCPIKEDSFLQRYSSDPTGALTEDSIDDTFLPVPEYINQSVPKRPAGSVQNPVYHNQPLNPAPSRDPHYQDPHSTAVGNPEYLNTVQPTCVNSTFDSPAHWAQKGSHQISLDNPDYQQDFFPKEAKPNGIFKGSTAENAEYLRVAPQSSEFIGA
EGFR Del19/T790M/C797S, sequence (P00533 with tags, fused parts or gaps DEL746-750/T790M/C797S): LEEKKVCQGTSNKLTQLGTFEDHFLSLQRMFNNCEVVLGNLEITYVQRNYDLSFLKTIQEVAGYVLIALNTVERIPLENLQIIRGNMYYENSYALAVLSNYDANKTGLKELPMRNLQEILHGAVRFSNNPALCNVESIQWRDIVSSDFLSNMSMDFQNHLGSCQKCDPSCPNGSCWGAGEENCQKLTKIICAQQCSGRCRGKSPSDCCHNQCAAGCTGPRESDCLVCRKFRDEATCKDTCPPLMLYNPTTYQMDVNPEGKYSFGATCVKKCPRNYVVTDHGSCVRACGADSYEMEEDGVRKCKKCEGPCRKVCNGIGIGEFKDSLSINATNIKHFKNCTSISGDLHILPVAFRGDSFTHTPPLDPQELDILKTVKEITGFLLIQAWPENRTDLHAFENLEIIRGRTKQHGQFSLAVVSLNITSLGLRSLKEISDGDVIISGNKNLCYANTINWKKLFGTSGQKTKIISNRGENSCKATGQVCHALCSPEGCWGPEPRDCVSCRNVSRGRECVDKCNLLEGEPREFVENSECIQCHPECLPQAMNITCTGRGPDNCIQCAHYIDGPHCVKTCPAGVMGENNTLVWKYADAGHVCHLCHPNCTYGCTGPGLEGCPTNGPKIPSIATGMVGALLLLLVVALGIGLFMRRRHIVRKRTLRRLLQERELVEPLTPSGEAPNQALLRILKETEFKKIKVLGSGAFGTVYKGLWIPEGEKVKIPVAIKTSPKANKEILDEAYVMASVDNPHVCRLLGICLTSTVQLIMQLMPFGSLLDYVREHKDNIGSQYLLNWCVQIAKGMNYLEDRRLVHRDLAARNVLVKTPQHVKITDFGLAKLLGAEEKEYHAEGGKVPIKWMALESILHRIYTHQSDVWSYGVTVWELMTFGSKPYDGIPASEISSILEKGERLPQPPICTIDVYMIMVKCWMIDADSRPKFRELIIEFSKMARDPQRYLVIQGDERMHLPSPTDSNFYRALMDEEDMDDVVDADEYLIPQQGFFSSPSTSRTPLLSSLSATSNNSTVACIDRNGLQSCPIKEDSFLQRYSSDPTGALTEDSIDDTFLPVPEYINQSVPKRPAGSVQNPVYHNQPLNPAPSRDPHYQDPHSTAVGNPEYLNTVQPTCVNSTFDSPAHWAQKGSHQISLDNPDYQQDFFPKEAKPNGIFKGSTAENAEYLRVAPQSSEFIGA
EGFR L858R/C797S, sequence (P00533 25-1210 C797S/L858R): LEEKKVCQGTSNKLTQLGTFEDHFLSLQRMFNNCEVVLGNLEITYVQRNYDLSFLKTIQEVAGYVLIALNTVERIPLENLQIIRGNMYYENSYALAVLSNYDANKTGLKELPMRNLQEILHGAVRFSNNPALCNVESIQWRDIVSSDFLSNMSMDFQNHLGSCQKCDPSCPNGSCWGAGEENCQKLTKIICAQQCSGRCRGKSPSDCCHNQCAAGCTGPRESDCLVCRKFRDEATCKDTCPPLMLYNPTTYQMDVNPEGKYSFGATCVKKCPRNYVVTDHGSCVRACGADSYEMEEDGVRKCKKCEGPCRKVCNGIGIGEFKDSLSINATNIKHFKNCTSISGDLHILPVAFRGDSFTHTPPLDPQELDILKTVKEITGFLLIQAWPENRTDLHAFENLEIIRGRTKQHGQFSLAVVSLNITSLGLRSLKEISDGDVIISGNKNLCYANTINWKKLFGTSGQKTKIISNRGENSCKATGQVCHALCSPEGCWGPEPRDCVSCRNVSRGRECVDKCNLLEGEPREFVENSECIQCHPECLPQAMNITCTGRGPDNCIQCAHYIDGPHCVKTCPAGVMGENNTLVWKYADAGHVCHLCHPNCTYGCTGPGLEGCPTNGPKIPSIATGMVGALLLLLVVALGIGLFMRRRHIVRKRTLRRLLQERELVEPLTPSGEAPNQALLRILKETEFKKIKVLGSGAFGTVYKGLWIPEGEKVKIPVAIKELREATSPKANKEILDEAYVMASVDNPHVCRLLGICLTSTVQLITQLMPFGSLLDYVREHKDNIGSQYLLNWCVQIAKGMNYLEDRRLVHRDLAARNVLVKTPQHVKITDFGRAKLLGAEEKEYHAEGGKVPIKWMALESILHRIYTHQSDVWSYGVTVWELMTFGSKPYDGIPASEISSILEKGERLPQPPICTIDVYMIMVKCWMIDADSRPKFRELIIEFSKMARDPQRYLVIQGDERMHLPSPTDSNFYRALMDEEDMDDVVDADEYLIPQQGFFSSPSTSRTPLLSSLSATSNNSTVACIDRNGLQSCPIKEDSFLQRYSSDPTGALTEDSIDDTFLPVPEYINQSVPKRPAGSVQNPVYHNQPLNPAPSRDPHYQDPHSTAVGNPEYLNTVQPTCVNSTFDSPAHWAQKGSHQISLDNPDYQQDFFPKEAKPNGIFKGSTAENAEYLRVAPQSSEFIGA

Turning to `CC1(CO)CCN(c2cc(Nc3ccnc(-c4cnn(S(=O)(=O)C5CC5)c4)n3)ncc2C#Cc2ccccn2)CC1` [Example 259, (1-(2-((2-(1-(Cyclopropylsulfonyl)-1H-pyrazol-4-yl)pyrimidin-4-yl)amino)-5-(pyridin-2-ylethynyl)pyridin-4-yl)-4-methylpiperidin-4-yl)methanol], the IC50 on EGFR Del19/T790M/C797S (setting [1]) was 0.6 nM; on EGFR Del19/T790M/C797S (setting [2]), 0.5 nM; at EGFR L858R/C797S (setting [3]), 1.2 nM; against EGFR L858R/C797S (setting [4]), 36 nM; on EGFR wildtype (WT) (setting [5]) it was 5.3 nM; on EGFR wildtype (WT) (IC50 WT (nM), 100 μM ATP), 3400 nM. Also, the IC50 on EGFR L858R/T790M/C797S (setting [6]) was found to be 0.3 nM; on EGFR L858R/T790M/C797S (setting [7]) it was 0.5 nM; at EGFR Del19/C797S (setting [8]), 0.5 nM; on EGFR Del19/C797S (setting [9]), 1.2 nM.
As for `CN(C)C(C)(C)CNC1CCN(c2cc(Nc3ccnc(-c4cnn(S(=O)(=O)C5CC5)c4)n3)ncc2C#Cc2cnn(C)c2)CC1` [Example 134, N^4-(1-(2-((2-(1-(Cyclopropylsulfonyl)-1H-pyrazol-4-yl)pyrimidin-4-yl)amino)-5-((1-methyl-1H-pyrazol-4-yl)ethynyl)pyridin-4-yl)piperidin-4-yl)-N^2,N^2,2-trimethylpropane-1,2-diamine], the IC50 on EGFR Del19/T790M/C797S (setting [2]) was 0.4 nM; on EGFR Del19/T790M/C797S (setting [10]), 0.4 nM; on EGFR L858R/C797S (setting [4]), 121 nM; on EGFR L858R/C797S (setting [11]), 5.6 nM; against EGFR wildtype (WT) (IC50 WT (nM), 100 μM ATP) it was greater than 10000 nM; at EGFR wildtype (WT) (setting [12]), 40.5 nM. Besides, the IC50 stood at 0.9 nM against EGFR L858R/T790M/C797S (setting [7]), 0.1 nM on EGFR L858R/T790M/C797S (setting [13]), 2.3 nM against EGFR Del19/C797S (setting [9]) and 1.5 nM on EGFR Del19/C797S (setting [14]).
Consider `CC1(CO)CCN(c2cc(Nc3ccnc(-c4cnn(CC(F)F)c4)n3)ncc2C#Cc2cnn(C(F)(F)F)c2)CC1` [Example 267, (1-(2-((2-(1-(2,2-Difluoroethyl)-1H-pyrazol-4-yl)pyrimidin-4-yl)amino)-5-((1-(trifluoromethyl)-1H-pyrazol-4-yl)ethynyl)pyridin-4-yl)-4-methylpiperidin-4-yl)methanol], for which the IC50 at EGFR Del19/T790M/C797S (setting [1]) is 1.6 nM; against EGFR Del19/T790M/C797S (setting [2]) it was 1.9 nM; at EGFR L858R/C797S (setting [3]), 4.1 nM; on EGFR L858R/C797S (setting [4]) it was 130 nM; on EGFR wildtype (WT) (setting [5]), 252 nM; against EGFR wildtype (WT) (IC50 WT (nM), 100 μM ATP), greater than 10000 nM. Further, the IC50 at EGFR L858R/T790M/C797S (setting [6]) came out at 0.8 nM; at EGFR L858R/T790M/C797S (setting [7]), 3.1 nM; at EGFR Del19/C797S (setting [8]), 24.2 nM; against EGFR Del19/C797S (setting [9]), 12.4 nM.
`CN(C)CCn1cc(C#Cc2cnc(Nc3ccnc(-c4cnn(S(=O)(=O)C5CC5)c4)n3)cc2N2CCC(NCCF)CC2)cn1` [Example 144, 2-(1-(Cyclopropylsulfonyl)-1H-pyrazol-4-yl)-N-(5-((1-(2-(dimethylamino)ethyl)-1H-pyrazol-4-yl)ethynyl)-4-(4-((2-fluoroethyl)amino)piperidin-1-yl)pyridin-2-yl)pyrimidin-4-amine]: the IC50 against EGFR Del19/T790M/C797S (setting [2]) is 0.3 nM; at EGFR Del19/T790M/C797S (setting [10]), 0.3 nM; on EGFR L858R/C797S (setting [4]) it was 34.3 nM; on EGFR L858R/C797S (setting [11]), 0.8 nM; against EGFR wildtype (WT) (IC50 WT (nM), 100 μM ATP) it was greater than 10000 nM; on EGFR wildtype (WT) (setting [12]) it was 23.8 nM. The IC50 at EGFR L858R/T790M/C797S (setting [7]) amounted to 0.4 nM; on EGFR L858R/T790M/C797S (setting [13]) it was 0.1 nM; against EGFR Del19/C797S (setting [9]), 0.9 nM; at EGFR Del19/C797S (setting [14]) it was 0.8 nM.
Take `CC(=O)C1CCN(c2cc(Nc3ccnc(-c4cnn(S(=O)(=O)C5CC5)c4)n3)ncc2C#Cc2cnn(C(F)(F)F)c2)CC1` [Example 334, 1-(1-(2-((2-(1-(Cyclopropylsulfonyl)-1H-pyrazol-4-yl)pyrimidin-4-yl)amino)-5-((1-(trifluoromethyl)-1H-pyrazol-4-yl)ethynyl)pyridin-4-yl)piperidin-4-yl)ethan-1-one]: the IC50 on EGFR Del19/T790M/C797S (setting [2]) was 8 nM; on EGFR Del19/T790M/C797S (setting [15]) it was 5.6 nM; on EGFR L858R/C797S (setting [4]), 7530 nM; on EGFR L858R/C797S (setting [16]), 136 nM; on EGFR wildtype (WT) (IC50 WT (nM), 100 μM ATP), greater than 10000 nM; at EGFR wildtype (WT) (setting [17]), 276 nM. For the same molecule, the IC50 stood at 14.8 nM on EGFR L858R/T790M/C797S (setting [7]), 3.3 nM at EGFR L858R/T790M/C797S (setting [18]), 1840 nM against EGFR Del19/C797S (setting [9]) and 239 nM on EGFR Del19/C797S (setting [19]).
For the molecule `O=S1(=O)CCC(C#Cc2cnc(Nc3ccnc(-c4cnn(S(=O)(=O)C5CC5)c4)n3)cc2NC2CCC(CO)CC2)C1` (stereo not drawn) [Example 428, 3-((6-((2-(1-(Cyclopropylsulfonyl)-1H-pyrazol-4-yl)pyrimidin-4-yl)amino)-4-(((1s,4s)-4-(hydroxymethyl)cyclohexyl)amino)pyridin-3-yl)ethynyl)tetrahydrothiophene 1,1-dioxide], the IC50 is 0.5 nM against EGFR Del19/T790M/C797S (setting [2]); 0.1 nM at EGFR Del19/T790M/C797S (setting [15]); 28.5 nM at EGFR L858R/C797S (setting [4]); 4.9 nM on EGFR L858R/C797S (setting [16]); greater than 10000 nM against EGFR wildtype (WT) (IC50 WT (nM), 100 μM ATP); 18.6 nM on EGFR wildtype (WT) (setting [17]). The IC50 against EGFR L858R/T790M/C797S (setting [7]) was found to be 0.2 nM; at EGFR L858R/T790M/C797S (setting [18]), 0.1 nM; against EGFR Del19/C797S (setting [9]), 1.9 nM; on EGFR Del19/C797S (setting [19]), 4 nM.
